In patent US11498928B2, “Macrocyclic spiroethers as Mcl-1 inhibitors” (ASCENTAGE PHARMA (SUZHOU) CO., LTD., priority 2019, dated 2022):
pIC50: −log10 of the molar value.

What was measured:
[1] = biological target: T1, Mcl-1 protein (residues 171-323) (Homo sapiens, UniProt Q07820); assay: Inhibition of Mcl-1 by fluorescence polarization (FP) competitive binding assay with FAM-Bid tracer; conditions: 2 nM FAM-Bid, 20 nM Mcl-1, 30 min
T1 construct: Tag-free Mcl-1 protein (residues 171-323) was used in the FP assay
Experimental: Inhibition of Mcl-1 by Fluorescence Polarization (FP) Assay.
The relative binding potency of representative Compounds of the Disclosure was determined by a fluorescence polarization (FP) assay (Long et al, BMC Biotechnology 13:45 (2013)). The method used a fluorescein labelled peptide (FAM-Bid) which binds to the Mcl-1 protein leading to an increased anisotropy measured in milli-polarization (mP) values using a plate reader. […] Tag-free Mcl-1 protein (residues 171-323) was used in the FP assay (Mady et al, Scientific Reports 8: 10210-10210 (2018); Yang et al, ACS Med. Chem. Lett. 3:308-312 (2012)).
A 10-points serial dilution of each compound was prepared in DMSO and 5 μL solution was transferred into flat bottomed, 96-well back plate (final DMSO concentration 5%). 120 μL of Buffer (PBS, 0.01% BGG (Sigma Cat. #SRE0011), 0.01% Triton X-100), containing the Fluorescein labelled peptide (Final concentration 2 nM) and Mcl-1 protein (final concentration 20 nM) was then added. Assay plates were incubated 30 mins at room temperature with gentle shaking before FP was measured on a Biotek Synergy 1MF reader (Ex. 485 nm, Em. 528 nm, Cut off 510 nm) and mP calculated. The binding of increasing doses of test compounds was expressed as a percentage reduction in mP compared to a window established between 5% DMSO only and 100% inhibition controls (no Mcl-1 protein). 10-points dose response curves were plotted with GraphPad software using Sigmoidal Dose-Response Model and the IC50 values were determined by nonlinear regression fitting of the competition curves. Cell Viability Assay (NCI-H929 cells)

OPM-2 cells = assay: Cell viability assay (OPM-2 cells), CCK-8; type: cell-based; conditions: 5% FBS
Experimental: OPM-2 cells were obtained from Deutsche Sammlung von Mikroorganismen and Zellkulturen GmbH (DSMZ). Cells were maintained in the recommended culture medium with 10% FBS at 37° C. and an atmosphere of 5% CO2.
The effect of representative Compounds of the Disclosure on cell viability was determined using Cell Counting Kit-8 (CCK-8) assay (Shanghai Life iLab Bio Technology) according to the manufacturer's instructions. Each tested compound was serially diluted in culture medium, 100 μL of the compound dilution was added into 96-well plates. 100 μL of an OPM-2 cell suspension (20000 cells/well) in culture medium were seeded into the corresponding well of the plate and the cells were incubated at 37° C. in an atmosphere of 5% CO2 for 24 hours. In the next day, 20 μL of CCK-8 solution was added to each well of the plate and incubated for 4 hours.
The plates were read at 450 nm on the microplate spectrophotometer (SpectraMax plus 384, Molecular devices). The readings were normalized to the vehicle cells, and the IC50 was calculated by nonlinear regression analysis using GraphPad Prism 6 software.

NCI-H929 cells = assay: Cell viability assay (NCI-H929 cells), CCK-8; type: cell-based; conditions: 5% FBS
Experimental: NCI-H929 cells were obtained from American Type Culture Collection (ATCC). Cells were maintained in the recommended culture medium (RPMI 1640) with 10% FBS and 0.05 mM BME at 37° C. and an atmosphere of 5% CO2.
The effect of Compounds on cell viability was determined using Cell Counting Kit-8 (CCK-8) assay according to the manufacturer's instructions. 95 μL of NCI-H929 cell suspension (20000 cells/well) in culture medium were seeded into 96-well plates and cultured 4 hrs. Each tested compound was serially diluted in DMSO, then 5 μL of the compound or DMSO was diluted in 95 μL medium once more. At last, 5 μL of the compound dilution was added to the corresponding well of the cell plate. After the addition of the tested compound, the cells were incubated at 37° C. in an atmosphere of 5% CO2 for 24 hrs. At the end, 10 μL of CCK-8 solution was added to each well of the plate and incubated for 1-4 hours. The plates were read at 450 nm on the microplate reader (BioTek Synergy 1MF). The readings were normalized to the vehicle cells, and the IC50 was calculated by nonlinear regression analysis using GraphPad Prism 6 software. Cell Viability Assay (OPM-2 cells)

T1 sequence (Q07820 171-323): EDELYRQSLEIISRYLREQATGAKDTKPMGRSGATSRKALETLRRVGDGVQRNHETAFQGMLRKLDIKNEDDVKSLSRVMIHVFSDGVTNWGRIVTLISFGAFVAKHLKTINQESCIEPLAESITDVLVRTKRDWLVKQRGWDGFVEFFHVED

SMILES	pIC50 [1]	pIC50 (NCI-H929 cells; 24 h)	pIC50 (NCI-H929 cells; Homo sapiens, NCI-H929, 24 h)	pIC50 (OPM-2 cells; 24 h)	pIC50 (OPM-2 cells; Homo sapiens, OPM-2, 24 h)
CO[C@H]1C2=CC(C2)[C@H](C)CS(=O)(=O)NC(=O)c2ccc3c(c2)N(C[C@@H]2CC[C@H]21)C[C@@]1(CCCc2cc(Cl)ccc21)CO3 (single isomer, unassigned) [Cpd. No. 14 (Isomer 2)]	7.96	6.82	–	5.88	–
CO[C@H]1C2=C[C@H](C2)[C@H](C)[C@@H](C)S(=O)(=O)NC(=O)c2ccc3c(c2)N(C[C@@H]2CC[C@H]21)C[C@@]1(CCCc2cc(Cl)ccc21)CO3 (single isomer, unassigned) [Cpd. No. 15 (isomer 2)]	8.19	–	6.64	–	6.00
CO[C@H]1C2=CC(C)(C2)[C@H](C)CS(=O)(=O)NC(=O)c2ccc3c(c2)N(C[C@@H]2CC[C@H]21)C[C@@]1(CCCc2cc(Cl)ccc21)CO3 (single isomer, unassigned) [Cpd. No. 18 (Isomer 1)]	8.38	7.43	–	7.60	–
CO[C@H]1C2=CC(C)(C2)[C@H](C)CS(=O)(=O)NC(=O)c2ccc3c(c2)N(C[C@@H]2CC[C@H]21)C[C@@]1(CCCc2cc(Cl)ccc21)CO3 (single isomer, unassigned) [Cpd. No. 18 (Isomer 2)]	8.31	6.36	–	5.92	–
CO[C@H]1C2=CC(C2)[C@H](C)[C@@H](C)S(=O)(=O)NC(=O)c2ccc3c(c2)N(C[C@@H]2CC[C@H]21)C[C@@]1(CCCc2c1cc(F)c(Cl)c2F)CO3 (single isomer, unassigned) [Cpd. No. 19]	7.72	–	6.17	–	6.10
CO[C@H]1C2CC(C2)[C@H](C)N(C)S(=O)(=O)NC(=O)c2ccc3c(c2)N(C[C@@H]2CC[C@H]21)C[C@@]1(CCCc2cc(Cl)ccc21)CO3 [Cpd. No. 28, (1S,12′S,16′S,16a′R,18a′R)-6-chloro-16′-methoxy-11′,12′-dimethyl-3,4,12′,13′,14′,15′,16′,16a′,17′,18′,18a′,19′-dodecahydro-1′H,2H,3′H,11′H-spiro[naphthalene-1,2′-[5,7]etheno[13,15]methanocyclobuta[i][1,4]oxazepino[3,4-f][1]thia[2,7,16]triazacyclohexadecin]-8′(9′H)-one 10′,10′-dioxide]	7.85	–	5.89	–	5.82
CO[C@@H]1C2CC(C2)[C@H](C)N(C)S(=O)(=O)NC(=O)c2ccc3c(c2)N(C[C@@H]2CC[C@H]21)C[C@@]1(CCCc2cc(Cl)ccc21)CO3 [Cpd. No. 29, (1S,12′S,16′R,16a′R,18a′R)-6-chloro-16′-methoxy-11′,12′-dimethyl-3,4,12′,13′,14′,15′,16′,16a′,17′,18′,18a′,19′-dodecahydro-1′H,2H,3′H,11′H-spiro[naphthalene-1,2′-[5,7]etheno[13,15]methanocyclobuta[i][1,4]oxazepino[3,4-f][1]thia[2,7,16]triazacyclohexadecin]-8′(9′H)-one 10′,10′-dioxide]	7.80	–	5.26	–	5.28
CO[C@H]1C2CC(C2)[C@H](C)CS(=O)(=O)NC(=O)c2ccc3c(c2)N(C[C@@H]2CC[C@H]21)C[C@@]1(CCCc2cc(Cl)ccc21)CO3 [compound 3]	8.10	–	5.52	–	5.26
CO[C@H]1C2=CC3(C2)CN(C3)S(=O)(=O)NC(=O)c2ccc3c(c2)N(C[C@@H]2CC[C@H]21)C[C@@]1(CCCc2cc(Cl)ccc21)CO3 [compound 31, (1S,16′R,16a′R,18a′R)-6-chloro-16′-methoxy-3,4,16′,16a′,17′,18′,18a′,19′-octahydro-1′H,2H,3′H,12′H-spiro[naphthalene-1,2′-[5,7]etheno[11,13:13,15]dimethanocyclobuta[i][1,4]oxazepino[3,4-f][1]thia[2,7,16]triazacyclohexadecin]-8′(9′H)-one 10′,10′-dioxide]	7.96	–	5.01	–	5.03
CO[C@@]1(CN2CCN3CCCC[C@H]3C2)C2=C[C@@H](C2)[C@H](C)[C@@H](C)S(=O)(=O)NC(=O)c2ccc3c(c2)N(C[C@@H]2CC[C@H]21)C[C@@]1(CCCc2c1ccc(Cl)c2F)CO3 [compound 32, (1S,11′R,12′S,13′R,16′R,16a′R,18a′R,E)-6-chloro-5-fluoro-16′-methoxy-11′,12′-dimethyl-16′-(((S)-octahydro-2H-pyrido[1,2-a]pyrazin-2-yl)methyl)-3,4,12′,13′,16′,16a′,17′,18′,18a′,19′-decahydro-1′H,2H,3′H,11′H-spiro[naphthalene-1,2′-[5,7]etheno[13,15]methanocyclobuta[i][1,4]oxazepino[3,4-f][1]thia[2,7]diazacyclohexadecin]-8′(9′H)-one 10′,10′-dioxide]	7.89	–	8.00	–	7.54

Further lines, with some results ahead:

pIC50 [1]	pIC50 (NCI-H929 cells; 24 h)	pIC50 (NCI-H929 cells; Homo sapiens, NCI-H929, 24 h)	SMILES	pIC50 (OPM-2 cells; 24 h)	pIC50 (OPM-2 cells; Homo sapiens, OPM-2, 24 h)
7.92	–	6.51	CO[C@H]1C2=C[C@H](C2)[C@H](C)[C@@H](C)S(=O)(=O)NC(=O)c2ccc3c(c2)N(C[C@@H]2CC[C@H]21)C[C@@]1(CCCc2c1ccc(Cl)c2F)CO3 (single isomer, unassigned) [Cpd. No. 17 (isomer 2)]	–	6.22
8.11	–	7.31	C[C@@H]1[C@@H](C)S(=O)(=O)NC(=O)c2ccc3c(c2)N(C[C@@H]2CC[C@H]2[C@@H](N2CCOCC2)C2=C[C@H]1C2)C[C@@]1(CCCc2c1ccc(Cl)c2F)CO3 (single isomer, unassigned) [compound 56]	–	7.19
6.38	–	5.47	CO[C@H]1C2=C[C@@H](C2)[C@H](C)[C@@H](C)S(=O)(=O)NC(=O)c2ccc3c(c2)N(C[C@@H]2CC[C@H]21)C[C@@]1(CCCc2c1cc(F)c(Cl)c2F)CO3 [compound 25]	–	5.60
7.89	–	7.44	CO[C@@]1(CN2CCOCC2)C2=C[C@@H](C2)[C@H](C)[C@@H](C)S(=O)(=O)NC(=O)c2ccc3c(c2)N(C[C@@H]2CC[C@H]21)C[C@@]1(CCCc2c1ccc(Cl)c2F)CO3 [compound 33, (1S,11′R,12′S,13′R,16′R,16a′R,18a′R,E)-6-chloro-5-fluoro-16′-methoxy-11′,12′-dimethyl-16′-(morpholinomethyl)-3,4,12′,13′,16′,16a′,17′,18′,18a′,19′-decahydro-1′H,2H,3′H,11′H-spiro[naphthalene-1,2′-[5,7]etheno[13,15]methanocyclobuta[i][1,4]oxazepino[3,4-f][1]thia[2,7]diazacyclohexadecin]-8′(9′H)-one 10′,10′-dioxide]	–	7.28
8.01	–	7.80	CO[C@@]1(CN2CCN3CCOC[C@H]3C2)C2=C[C@@H](C2)[C@H](C)[C@@H](C)S(=O)(=O)NC(=O)c2ccc3c(c2)N(C[C@@H]2CC[C@H]21)C[C@@]1(CCCc2c1ccc(Cl)c2F)CO3 [compound 34, (1S,11′R,12′S,13′R,16′R,16a′R,18a′R,E)-6-chloro-5-fluoro-16′-(((R)-hexahydropyrazino[2,1-c][1,4]oxazin-8(1H)-yl)methyl)-16′-methoxy-11′,12′-dimethyl-3,4,12′,13′,16′,16a′,17′,18′,18a′,19′-decahydro-1′H,2H,3′H,11′H-spiro[naphthalene-1,2′-[5,7]etheno[13,15]methanocyclobuta[i][1,4]oxazepino[3,4-f][1]thia[2,7]diazacyclohexadecin]-8′(9′H)-one 10′,10′-dioxide]	–	7.46
